Values joined by “and” are separate entries in the source; they are usually repeats but may differ in a detail not shown here. Equal values may be shown once. Read-outs that look alike come from different tables or passages of the source.
How the values were obtained:
[1] = molecular target: T1, HIV-1 RT-associated RNase H activity, K103N RT (Human immunodeficiency virus type 1 group M subtype B, UniProt P04585, K690N); test: RNase H activity assay, K103N RT; format: biochemical, HIV-1 group M subtype B
T1 construct: The 1:1 ration between the p66/p51 subunits was also verified; made in house; host or cells: E. coli M15
Description: (§1) HIV RT-associated RNase H activity was measured as described in 100 μL reaction volume containing 50 mM Tris-HCl buffer pH 7.8, 6 mM MgCl2, 1 mM dithiothreitol (DTT), 80 mM KCl, 0.25 μM hybrid RNA/DNA 5'-GAUCUGAGCCUGGGAGCU-Fluorescin-3' (HPLC, dry, QC: Mass Check) (available from Metabion) 5'-Dabcyl-AGCTCCCAGGCTCAGATC-3'(HPLC, dry, QC: Mass Check), increasing concentrations of inhibitors, whose dilution were made in water, and different amount of enzymes according to a linear range of dose-response curve: 20 ng of WT RT; 60 ng K103N RT; 37.5 ng V106A RT; 75 ng V108A RT; 5 ng Y181C RT; 50 ng Y188A RT; 30 ng Y188L RT; 100 ng E224A RT; 37.5 ng P225A RT; 20 ng P226A RT; 18 ng F227A RT; 30 ng L228A RT; 30 ng W229A RT; 10 ng M230A RT; 30 ng G231A RT; 62.5 ng N474A RT; 1 μg Y501A RT; 100 ng A502F RT; 37.5 ng A508V RT; 38 ng HIV-1 group O RT. The reaction mixture was incubated for 1 h at 37°C, stopped by addition of EDTA and products were measured with a multilabel counter plate reader Victor 3 (Perkin Elmer model 1420–051) equipped with filters for 490/528 nm (excitation/emission wavelength)

[2] = molecular target: T2, HIV-1 RT-associated RNase H activity, Y181C RT (Human immunodeficiency virus type 1 group M subtype B, UniProt P04585, Y768C); test: RNase H activity assay, Y181C RT; format: biochemical, HIV-1 group M subtype B
T2 construct: The 1:1 ration between the p66/p51 subunits was also verified; made in house; host or cells: E. coli M15
Description: as §1

[3] = molecular target: T3, HIV-1 RT-associated RNase H activity, Y188L RT (Human immunodeficiency virus type 1 group M subtype B, UniProt P04585, Y775L); test: RNase H activity assay, Y188L RT; format: biochemical, HIV-1 group M subtype B
T3 construct: The 1:1 ration between the p66/p51 subunits was also verified; made in house; host or cells: E. coli M15
Description: as §1

[4] = molecular target: T4, HIV-1 RT-associated RNase H activity, V106A RT (Human immunodeficiency virus type 1 group M subtype B, UniProt P04585, V693A); test: RNase H activity assay, V106A RT; format: biochemical, HIV-1 group M subtype B
T4 construct: The 1:1 ration between the p66/p51 subunits was also verified; made in house; host or cells: E. coli M15
Description: as §1

[5] = molecular target: T5, HIV-1 RT-associated RNase H activity, V108A RT (Human immunodeficiency virus type 1 group M subtype B, UniProt P04585, V695A); test: RNase H activity assay, V108A RT; format: biochemical, HIV-1 group M subtype B
T5 construct: The 1:1 ration between the p66/p51 subunits was also verified; made in house; host or cells: E. coli M15
Description: as §1

[6] = molecular target: T6, HIV-1 RT-associated RNase H activity, Y188A RT (Human immunodeficiency virus type 1 group M subtype B, UniProt P04585, Y775A); test: RNase H activity assay, Y188A RT; format: biochemical, HIV-1 group M subtype B; conditions: for Fold of increase of RNase H IC50 with respect to wt RT: Y188A RT
T6 construct: The 1:1 ration between the p66/p51 subunits was also verified; made in house; host or cells: E. coli M15
Description: as §1

[7] = molecular target: T7, HIV-1 RT-associated RNase H activity, E224A RT (Human immunodeficiency virus type 1 group M subtype B, UniProt P04585, E811A); test: RNase H activity assay, E224A RT; format: biochemical, HIV-1 group M subtype B; conditions: for Fold of increase of RNase H IC50 with respect to wt RT: E224A RT
T7 construct: The 1:1 ration between the p66/p51 subunits was also verified; made in house; host or cells: E. coli M15
Description: as §1

[8] = molecular target: T8, HIV-1 RT-associated RNase H activity, P225A RT (Human immunodeficiency virus type 1 group M subtype B, UniProt P04585, P812A); test: RNase H activity assay, P225A RT; format: biochemical, HIV-1 group M subtype B; conditions: for Fold of increase of RNase H IC50 with respect to wt RT: P225A RT
T8 construct: The 1:1 ration between the p66/p51 subunits was also verified; made in house; host or cells: E. coli M15
Description: as §1

[9] = molecular target: T9, HIV-1 RT-associated RNase H activity, P226A RT (Human immunodeficiency virus type 1 group M subtype B, UniProt P04585, P813A); test: RNase H activity assay, P226A RT; format: biochemical, HIV-1 group M subtype B
T9 construct: The 1:1 ration between the p66/p51 subunits was also verified; made in house; host or cells: E. coli M15
Description: as §1

[10] = system: HIV-1 RT-associated RNase H activity, P226A RT; test: RNase H activity assay, P226A RT; format: biochemical, HIV-1 group M subtype B; conditions: P226A RT
Description: as §1

[11] = molecular target: T10, HIV-1 RT-associated RNase H activity, F227A RT (Human immunodeficiency virus type 1 group M subtype B, UniProt P04585, F814A); test: RNase H activity assay, F227A RT; format: biochemical, HIV-1 group M subtype B
T10 construct: The 1:1 ration between the p66/p51 subunits was also verified; made in house; host or cells: E. coli M15
Description: as §1

[12] = system: HIV-1 RT-associated RNase H activity, F227A RT; test: RNase H activity assay, F227A RT; format: biochemical, HIV-1 group M subtype B; conditions: F227A RT
Description: as §1

[13] = molecular target: T11, HIV-1 RT-associated RNase H activity, L228A RT (Human immunodeficiency virus type 1 group M subtype B, UniProt P04585, L815A); test: RNase H activity assay, L228A RT; format: biochemical, HIV-1 group M subtype B; conditions: for Fold of increase of RNase H IC50 with respect to wt RT: L228A RT
T11 construct: The 1:1 ration between the p66/p51 subunits was also verified; made in house; host or cells: E. coli M15
Description: as §1

[14] = molecular target: T12, HIV-1 RT-associated RNase H activity, W229A RT (Human immunodeficiency virus type 1 group M subtype B, UniProt P04585, W816A); test: RNase H activity assay, W229A RT; format: biochemical, HIV-1 group M subtype B; conditions: for Fold of increase of RNase H IC50 with respect to wt RT: W229A RT
T12 construct: The 1:1 ration between the p66/p51 subunits was also verified; made in house; host or cells: E. coli M15
Description: as §1

[15] = molecular target: T13, HIV-1 RT-associated RNase H activity, A502F RT (Human immunodeficiency virus type 1 group M subtype B, UniProt P04585, A1089F); test: RNase H activity assay, A502F RT; format: biochemical, HIV-1 group M subtype B; conditions: for Fold of increase of RNase H IC50 with respect to wt RT: A502F RT
T13 construct: The 1:1 ration between the p66/p51 subunits was also verified; made in house; host or cells: E. coli M15
Description: as §1

[16] = molecular target: T14, HIV-1 RT-associated RNase H activity, A508V RT (Human immunodeficiency virus type 1 group M subtype B, UniProt P04585, A1095V); test: RNase H activity assay, A508V RT; format: biochemical, HIV-1 group M subtype B; conditions: for Fold of increase of RNase H IC50 with respect to wt RT: A508V RT
T14 construct: The 1:1 ration between the p66/p51 subunits was also verified; made in house; host or cells: E. coli M15
Description: as §1

p66/p51 HIV-1 RT = molecular target: T15, p66/p51 HIV-1 RT (Human immunodeficiency virus type 1 group M subtype B, UniProt P04585); test: Thermal stability by differential scanning fluorimetry; format: binding; conditions: increasing concentrations of inhibitor
T15 construct: The 1:1 ration between the p66/p51 subunits was also verified; made in house; host or cells: E. coli M15
Description: Thermal stability assays were performed according to Nettleship et al.. […] The mixture was heated from 30 to 90°C in increments of 0.2°C. Fluorescence intensity was measured using excitation and emission wavelengths of 483 and 568 nm, respectively. Changes in protein thermal stability (ΔTm) upon inhibitor binding were analyzed by using the LightCycler 480 software. All assays were performed in triplicate.

CC(C)c1ccc(O)c(=O)c(O)c1 [BTP, β-thujaplicinol, reference compound]
IC50 ([1]; K103N RT, read-out: IC50 RNase H): 220 ± 80 nM
IC50 ([2]; Y181C RT, read-out: IC50 RNase H): 230 ± 50 nM
IC50 ([3]; Y188L RT, read-out: IC50 RNase H): 80 ± 50 nM
IC50 [4]: 160 ± 30 nM
IC50 [5]: 180 ± 40 nM
IC50 [6]: 190 ± 80 nM
Fold of increase of RNase H IC50 with respect to wt RT [6]: 1.0
IC50 [7]: 150 ± 30 nM
Fold of increase of RNase H IC50 with respect to wt RT [7]: 0.8
IC50 [8]: 130 ± 60 nM
Fold of increase of RNase H IC50 with respect to wt RT [8]: 0.7
IC50 [9]: 290 ± 80 nM
Fold of increase of RNase H IC50 with respect to wt RT [10]: 1.5
IC50 [11]: 220 ± 40 nM
Fold of increase of RNase H IC50 with respect to wt RT [12]: 1.2
IC50 [13]: 100 ± 60 nM
Fold of increase of RNase H IC50 with respect to wt RT [13]: 0.5
IC50 [14]: 150 ± 80 nM
Fold of increase of RNase H IC50 with respect to wt RT [14]: 0.8
IC50 [15]: 170 ± 30 nM
Fold of increase of RNase H IC50 with respect to wt RT [15]: 0.9
IC50 [16]: 160 ± 50 nM
Fold of increase of RNase H IC50 with respect to wt RT [16]: 0.8
Tm increase of HIV-1 RT (p66/p51 HIV-1 RT; in the presence of Mg2+): < 2.0 °C

N#Cc1ccc(-c2csc(NN=C3C(=O)Nc4ccccc43)n2)cc1 [RMNC6, (Z)-4-(2-(2-(2-oxoindolin-3-ylidene)hydrazinyl)thiazol-4-yl)benzonitrile]
IC50 [1]: 2300 ± 100 nM
IC50 [2]: 2100 ± 600 nM
IC50 [3]: 1600 ± 500 nM
IC50 [4]: 5300 ± 600 nM
IC50 [5]: 13100 ± 2500 nM
IC50 [6]: 3300 ± 1500 nM
Fold of increase of RNase H IC50 with respect to wt RT [6]: 2.5
IC50 [7]: 7900 ± 1100 nM
Fold of increase of RNase H IC50 with respect to wt RT [7]: 6 and 6.1
IC50 [8]: 1700 ± 200 nM
Fold of increase of RNase H IC50 with respect to wt RT [8]: 1.3
IC50 [9]: 1900 ± 100 nM
Fold of increase of RNase H IC50 with respect to wt RT [10]: 1.5
IC50 [11]: 700 ± 100 nM
Fold of increase of RNase H IC50 with respect to wt RT [12]: 0.5
IC50 [13]: 1500 ± 100 nM
Fold of increase of RNase H IC50 with respect to wt RT [13]: 1.1
IC50 [14]: 1900 ± 500 nM
Fold of increase of RNase H IC50 with respect to wt RT [14]: 1.5
IC50 [15]: 13000 ± 700 nM
Fold of increase of RNase H IC50 with respect to wt RT [15]: 10.0
IC50 [16]: 6500 ± 700 nM
Fold of increase of RNase H IC50 with respect to wt RT [16]: 5.0
Effect on RT thermal stability (p66/p51 HIV-1 RT): did not affect significantly
